Laboratory results published in a compilation of properties of binary mixtures (doi:10.1016/j.molliq.2022.119918).

Assay: xn = mol fraction of the nth substance listed
Details: 100 kPa

COCCCC[n+]1ccn(C)c1.NCC(=O)[O-] + CS(C)=O
viscosity [mPa·s]
Details | x1 = 0.1009 | x1 = 0.1984 | x1 = 0.299 | x1 = 0.3986 | x1 = 0.4986 | x1 = 0.6006 | x1 = 0.701 | x1 = 0.7941 | x1 = 0.907 | x1 = 1
288.15 K | 7.64 | 11.87 | 20.11 | 32.75 | – | 66.91 | 88.2 | 112 | 149.9 | 180.6
293.15 K | 6.23 | 9.49 | 15.68 | 24.97 | – | – | 66.19 | – | 110.8 | 130.1
298.15 K | 5.05 | 7.6 | 12.46 | 19.85 | 29.5 | 40.49 | 52.63 | – | 83.6 | –
303.15 K | – | 6.27 | – | 15.9 | 23.66 | 32.57 | 42.38 | 52.54 | 65.49 | 74.4
308.15 K | – | 5.29 | – | 13.2 | 19.51 | 26.99 | – | 42.67 | 52.32 | 58.09
313.15 K | 3.15 | 4.59 | 7.18 | 11.14 | 16.4 | 22.63 | 29.37 | 35.24 | 42.06 | 46.29
318.15 K | – | 3.92 | 6.04 | 9.3 | 13.46 | 18.67 | 23.75 | 28.16 | 32.95 | 36.43

CC(N)C(=O)[O-].COCCCCn1cc[n+](C)c1 + CS(C)=O
viscosity [mPa·s]
Details | x1 = 0.1009 | x1 = 0.1996 | x1 = 0.3012 | x1 = 0.3985 | x1 = 0.4922 | x1 = 0.5996 | x1 = 0.6966 | x1 = 0.7973 | x1 = 0.8997 | x1 = 1
288.15 K | 8.27 | – | – | 40.5 | 63.89 | – | 135.6 | 203 | – | 403
293.15 K | 7.89 | – | – | 31.54 | 48.62 | 72 | 100.9 | 143.7 | 206 | –
298.15 K | 6.04 | – | 15.05 | 24.76 | 36.87 | 53.3 | 73 | 101.8 | 142.7 | 180.6
303.15 K | 4.95 | – | 12.31 | 19.81 | 29.28 | – | 56.62 | 77.6 | 107.6 | 132.1
308.15 K | 4.21 | 6.25 | 10.23 | – | 23.47 | – | – | – | 80.8 | 98.3
313.15 K | 3.64 | 5.27 | 8.32 | 13.02 | 18.84 | 26.78 | – | 47.36 | 61.67 | 73.5
318.15 K | – | 4.57 | 7.01 | 10.65 | – | – | 28.53 | – | 47.83 | 55.86

CS(C)=O + COCCCC[n+]1ccn(C)c1.NCC(=O)[O-]
x2 = 0
Details | viscosity [mPa·s]
288.15 K | 2.47
293.15 K | 2.21
298.15 K | 1.99
303.15 K | 1.81
313.15 K | 1.51
318.15 K | 1.39

CS(C)=O + NC(C)C(=O)[O-].COCCCCN1C=[N+](C=C1)C
x2 = 0
Details | viscosity [mPa·s]
288.15 K | 2.47
293.15 K | 2.21
298.15 K | 1.99
303.15 K | 1.81
313.15 K | 1.51
318.15 K | 1.39
